Measured values from article PMC10722540, “Red Wine Inspired Chemistry: Hemisynthesis of Procyanidin Analogs and Determination of Their Protein Precipitation Capacity, Octanol–Water Partition, and Stability in Phosphate-Buffered Saline” (Journal of Agricultural and Food Chemistry, 2023).

How the values were obtained:
[1] = biological target: T1, bovine serum albumin (BSA) (Bos taurus, UniProt P02769); test: Protein precipitation capacity (PPC), turbidimetric well-plate reader assay with BSA, log-normal dose–response model; assay type: biochemical; conditions: SE in parentheses
T1 construct: purchased Sigma-Aldrich (MO, USA)
Method: (§1) PPC was measured by using the turbidimetric well-plate reader assay of Engström et al. (2019), with few modifications to the volumes of the reactants and to the number of replicates, for instance. The analyzes of the supernatants were done following Engström et al. (2022).[21] Briefly, 75 μL of BSA solution and 75 μL of the solutions of compounds 2–14 were pipetted to well plates, and the intensity of the forming haze was measured periodically at 420 nm using a well-plate reader. The PPC of the PC analogue 1 was not measured because it was not soluble in suitable solvents. The reactions were monitored for 30 min, and the highest intensities were recorded. A single background measurement was done at each concentration with all the components in the wells but the BSA. The reactions were done in triplicates (and in duplicates with PC C1), and the concentrations of the compounds 2–14 in the reaction mixtures were 0.25 0.65, 1.05, 1.45, 1.85, and 2.25 mM. The concentration of the BSA was kept constant at 0.1 mM. Therefore, the tested molar ratios to BSA were 2.5:1, 6.5:1, 10.5:1, 14.5:1, 18.5:1, and 22.5:1. After the 30 min, the supernatants and precipitates of the replicates were combined in a 1.5 mL Eppendorf tube and separated by centrifuging. The supernatants were then analyzed by UPLC–DAD using the shorter phenyl column (section 2.4) to quantify the leftover compounds 2–14 and BSA. Leftover BSA was quantified using a separately prepared linear calibration curve (1–125 μM), and the compounds 2–14 were quantified by analyzing the background solutions from the well-plate reader assay and constructing a calibration curve from these analyzes. BSA was quantified at 280 nm and compounds 2–14 at 280–320 nm. The wavelength of maximal UV absorption for compounds 2–14 could not be utilized in quantification because the diode array detector was saturated at the optimal wavelengths due to the high concentrations used in the well-plate reader assay. Therefore, off-optimal wavelengths were chosen for quantification separately for each compound 2–14 to reduce intensities and to obtain linear fits for calibration curves.
All statistical analyzed were performed with R (version 4.2.2) in the integrated development environment Rstudio (version 2022.12.0.353).[23],[24] The PPC data was fitted with a dose–response model using the package drc.[25] Various models, e.g., logit and log-normal models, were compared using the mselect function, and the best fitting model was chosen based on the Akaike’s information criterion and residual error when comparing all models, and log-likelihood was used when comparing nested models. All compounds were assumed to have the same upper and lower asymptotes; the former was estimated from the experimental data, and the latter was fixed at zero.

[2] = Octanol–water partition, shake-flask method; assay type: physicochemical; conditions: 200 μM, n-octanol/water, 2 h mixing, SE in parentheses
Method: The shake-flask method was done using 2 mL Eppendorf tubes and three replicates. […] After mixing, aliquots of 500 μL were transferred to new Eppendorf tubes, and 500 μL of n-octanol was added that had been saturated with water. The solvent systems were mixed in a vortex mixer for 2 h, and then both the water and the n-octanol layers as well as the initial water solution were analyzed by UPLC–DAD using the shorter phenyl column (section 2.4). The chromatograms were integrated using TargetLynx software (version 4.2), and the octanol–water partition coefficient, log P, was calculated as the log10 of the ratio of area in n-octanol phase to the area in water phase. Recovery % was calculated by summing the areas in both phases and dividing the summation with the area measured from the initial water phase.

[3] = Stability in phosphate buffered saline; assay type: physicochemical; conditions: phosphate buffered saline, pH 7.4, PBS pH 7.4, 0.01 M phosphate, 150 μM, first-order kinetics, UV 280 nm; read-out: half-life (t1/2)
Method: The stabilities of the compounds were measured in PBS, which was prepared from commercially available tablets that were dissolved in ultrapure water. The phosphate concentration was 0.01 M, the pH was 7.4, and the potassium and sodium chloride concentrations were 0.0027 and 0.137 M, respectively. […] The compounds were dissolved in 2 mL of the PBS solution in Eppendorf tubes, vortexed for approximately 15 min, and filtered through a 0.2 μm PTFE filter to a 2 mL UPLC vial. The solutions were analyzed with the UPLC-DAD-HESI-Orbitrap-MS instrument using the longer phenyl column (section 2.4), and repeated injections were done every 47.5 min for approximately 12 h. […] The UV chromatograms at 280 nm were integrated using the QuanBrowser module in Xcalibur software (version 4.1.31.9), and the main degradation products were identified in QualBrowser by their high-resolution mass spectra and UV spectra. With each compound, the measured areas were transformed to proportional areas by dividing all areas with the initial area in the first injection of the time series, and the data was further loge transformed and fitted with first-order linear regression curves. The regression curves were supplemented with 95% confidence intervals to visualize the uncertainty in the fitted curves. The half-lives were calculated from the slope (k) parameters of the linear regression model using the following equation: [drawing 1]

[4] = biological target: T1, bovine serum albumin (BSA); test: UPLC–DAD analysis of supernatants from the PPC experiment (proportion of precipitated BSA); assay type: biochemical; conditions: highest tested concentration of 2.25 mM (molar ratio to BSA 23:1)
Method: as §1

T1 sequence (P02769 25-607): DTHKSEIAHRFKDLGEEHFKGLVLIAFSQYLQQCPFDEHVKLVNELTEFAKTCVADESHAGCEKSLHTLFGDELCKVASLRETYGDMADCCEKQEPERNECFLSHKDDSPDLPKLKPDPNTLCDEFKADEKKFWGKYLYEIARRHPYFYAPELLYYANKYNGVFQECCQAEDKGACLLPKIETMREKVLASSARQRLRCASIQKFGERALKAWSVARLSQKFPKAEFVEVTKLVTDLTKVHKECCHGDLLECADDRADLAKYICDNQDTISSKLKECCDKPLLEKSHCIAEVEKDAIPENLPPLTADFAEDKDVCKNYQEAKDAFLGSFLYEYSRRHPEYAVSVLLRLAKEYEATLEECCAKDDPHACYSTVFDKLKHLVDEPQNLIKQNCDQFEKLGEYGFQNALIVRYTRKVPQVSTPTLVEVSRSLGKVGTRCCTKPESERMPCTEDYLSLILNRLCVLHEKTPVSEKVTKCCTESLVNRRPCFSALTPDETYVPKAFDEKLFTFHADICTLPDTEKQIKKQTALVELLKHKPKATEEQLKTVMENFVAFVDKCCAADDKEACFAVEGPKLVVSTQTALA

For `O=C(O[C@@H]1Cc2c(O)cc(O)cc2O[C@@H]1c1cc(O)c(O)c(O)c1)c1cc(O)c(O)c(O)c1` [Compound 14, Epigallocatechin-3-gallate, reference compound], the “ED90 (mM)” value ([1]; BSA 0.1 mM) was 1.76 (0.06) mM, the EC50 ([1]; concentration giving 50% of maximal absorbance (420 nm haze), BSA 0.1 mM, read-out: ED50 (the source's name)) was 890 µM and the slope ([1]; slope parameter of log-normal dose–response model) was 1.88 (0.07). For the same compound, the KOW [2] was 13.58 (0.06), the logP at 2 h ([2]; read-out: log P (log10KOW)) was 1.13 and the half-life at 150 μM [3] was 1.4 h. The “proportion of BSA precipitated” value [4] was “almost all”.
